# Test results published in patent US10905744B2, “Pharmaceutical formulations for the oral delivery of peptide drugs” (Cyprumed GmbH, priority 2015, dated 2021).
# Assays:
# [1] = Pharmacokinetic profiles of PTH(1-34) formulations after intestinal administration (Example 3); type: in vivo, Sprague Dawley rats; conditions: relative to PTH(1-34) s.c.
# Protocol: Teriparatide (PTH1-34) was dosed subcutaneously in volume of 1 ml/kg (final concentration 0.024 mg/ml teriparatide) to anaesthetized rats. TER001 and TER002 were dosed into ileum in volume of 0.4 mi/kg (final concentration 0.24 mg/ml teriparatide) to anaesthetized rats. […] The teriparatide plasma concentrations were determined using commercial pTH (1-34) human ELISA kit (Biovendor, EU, cat. number RS-1163.0001).
# [2] = study comparing aprotinin with aminocaproic acid; cited from earlier work
# [3] = Pharmacokinetic profile of octreotide formulations after administration into proximal jejunum (Example 8)
# Protocol: The formulations OCT002, OCT003 and OCT004 were dissolved in an octreotide stock solution 5-10 min prior to dosing into proximal jejunum in volume of 0.4 ml/kg to anaesthetized rats. The final octreotide concentration of each formulation was 0.36 mg/kg. Blood was taken from tail vessels at the time points 0, 10, 20, 40, 60, 90 and 120 min after dosing. The octreotide plasma concentration was determined using commercial octreotide kit (Peninsula Laboratories International, Inc., USA, cat.number S-1342.0001).
# [4] = GLP-1 peptide formulations with SNAC and trace elements: dissolution in aqua purificata, visual (Example 4); type: physicochemical; conditions: liraglutide 1.8 mg/ml, SNAC 20 mg, trace element 2 mg, disodium phosphate dihydrate, 2 ml aqua purificata
# Protocol: Compositions comprising a GLP-1 peptide, a complexing agent (disodium phosphate dihydrate), the absorption enhancer N-(8-[2-hydroxybenzoyl]amino)caprylic acid (SNAC) and various trace elements or metal salts were prepared and dissolved in 2 ml of aqua purificata and examined visually.
# trypsin = biological target: T1, trypsin (Bos taurus, UniProt P00760); assay: Trypsin inhibition, BAPNA substrate, absorbance at 405 nm (Examples 10-12, 20-22, 25, 26, 28, 29, 33); type: biochemical
# T1 construct: gene PRSS1
# T1 sequence (P00760 24-246): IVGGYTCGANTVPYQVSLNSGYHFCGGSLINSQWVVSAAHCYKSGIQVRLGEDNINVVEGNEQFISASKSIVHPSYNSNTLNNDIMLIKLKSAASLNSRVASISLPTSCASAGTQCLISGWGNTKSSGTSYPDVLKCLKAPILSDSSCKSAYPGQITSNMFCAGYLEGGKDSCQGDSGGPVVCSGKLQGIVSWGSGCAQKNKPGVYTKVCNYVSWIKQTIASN
# Protocol: 100 mg/ml copper gluconate in 50 mM TRIS pH 7; pH was adjusted to pH 7; stock solution was diluted to the following concentrations: 50 mg/ml, 25 mg/ml, 12.5 mg/ml, 5 mg/ml, 6.25 mg/ml, 3.125 mg/ml, 2.5 mg/ml, 1.25 mg/ml, 0.625 mg/ml, 0.313 mg/ml, 0.156 mg/ml and 0.078 mg/ml
# 0.5 mg/mL Benzoyl-Arginine p-nitroanilide (BAPNA)
# 100 μl 50 mM TRIS pH 7+50 μL Trypsin Stock+50 μL BAPNA Stock
# 100 μl Copper solution (according to the above described dilutions)+50 μL Trypsin Stock+50 μL BAPNA Stock
# Absorption was measured after 15 minutes at 405 nm.
# Values were corrected (subtraction of blank).
# 100 mg/ml Zinc bisglycinate in 50 mM TRIS pH 7; pH was adjusted to pH 7; stock solution was diluted to the following concentrations: 50 mg/ml and 25 mg/ml
# 100 μl Zinc solution (according to the above described dilutions)+50 μL Trypsin Stock+50 μL BAPNA Stock
# 10 mg/ml iron gluconate in 50 mM TRIS pH 7; pH was adjusted to pH 7; stock solution was diluted to the following concentrations: 5 mg/ml, 2.5 mg/ml, 1.25 mg/ml and 0.625 mg/ml
# 100 μl Iron solution (according to the above described dilutions)+50 μL Trypsin Stock+50 μL BAPNA Stock
# Absorption was measured directly at 405 nm.
# Benzoyl-Arginine p-nitroanilide (BAPNA): 0.5 mg/ml in 50 mM TRIS pH 7 (centrifuged and supernatant used as stock solution)
# Trypsin: […] in 50 mM TRIS pH 7
# 1 mg/mL iron gluconate in 10 mM TRIS pH 7 (iron content=12%), 0.12 mg/ml iron
# […] copper lysinate in 10 mM TRIS pH 7 (copper content=3%), 0.12 mg/ml copper
# 100 μl of the respective salt solution+50 μL Trypsin Stock+50 μL BAPNA Stock
# Experiments were carried out at pH 7, 50 mM TRIS.
# 0.025 mg/ml Trypsin, 0.125 mg/mL Benzoyl-Arginine p-nitroanilide (BAPNA.) Lauryl glutamate:
# 0.25 mg/ml; copper content (as copper(II)gluconate): 0.035 mg/ml.
# Adsorption measurement at 405 nm
# 0.025 mg/ml Trypsin, 0.125 mg/mL Benzoyl-Arginine p-nitroanilide (BAPNA). lauryl-glutamate:
# Absorption measurement at 405 nm
# 0.025 mg/ml Trypsin, 0.125 mg/mL Benzoyl-Arginine p-nitroanilide (BAPNA). Capryl-glucoside:
# Copper sulfate stock solution: 1 mg/ml of copper sulfate was dissolved in 50 mM TRIS pH 7. Copper tartrate stock solution: 1 mg/ml of copper tartrate was dispersed in 50 mM TRIS pH 7 and moderately stirred for 5 minutes. The suspension was then centrifuged at 3′000 rpm for 10 minutes, to separate the insoluble salt. The supernatant was used as stock solution for the experiments.
# Zinc orotate stock solution: 1 mg/ml of zinc orotate was dispersed in 50 mM TRIS pH 7 and moderately stirred for 5 minutes. The suspension was then centrifuged at 3′000 rpm for 10 minutes, to separate the insoluble salt. The supernatant was used as stock solution for the experiments.
# 100 μL of the respective salt solution stock+50 μL Trypsin Stock+50 μL BAPNA Stock
# Control: 100 μL of 50 mM TRIS pH 7+50 μL Trypsin Stock+50 μL BAPNA Stock
# Final concentrations of protease and substrate were 0.025 mg/ml Trypsin, 0.125 mg/mL
# 50 μl manganese sulfate+50 μl copper gluconate+50 μL Trypsin Stock+50 μL BAPNA Stock
# Absorption measurement at 405 nm; final pH in all solutions was monitored to be pH 7.
# 3 mg/ml SiO2—suspended in 50 mM TRIS pH 7 and centrifuged; supernatant was used for experiments.
# 50 μl SiO2+50 μl 50 mM TRIS pH 7+50 μL Trypsin Stock+50 μL BAPNA Stock
# 50 μl copper gluconate+50 μl SiO2+50 μL Trypsin Stock+50 μL BAPNA Stock
# 50 μl iron gluconate+50 μl SiO2+50 μL Trypsin Stock+50 μL BAPNA Stock
# 120 μl 50 mM TRIS pH 7+50 μL Trypsin Stock+50 μL BAPNA Stock
# 80 μl copper gluconate+40 μl 50 mM TRIS pH 7+50 μL Trypsin Stock+50 μL BAPNA Stock
# 40 μl copper gluconate+80 μl 50 mM TRIS pH 7+50 μL Trypsin Stock+50 μL BAPNA Stock
# 80 μl iron gluconate+40 μl 50 mM TRIS pH 7+50 μL Trypsin Stock+50 μL BAPNA Stock
# 40 μl iron gluconate+80 μl 50 mM TRIS pH 7+50 μL Trypsin Stock+50 μL BAPNA Stock
# 80 μl iron gluconate+40 μl copper gluconate+50 μL Trypsin Stock+50 μL BAPNA Stock
# chymotrypsin = chymotrypsin (Bos taurus, UniProt P00766); assay: Chymotrypsin inhibition, BTPNA substrate, absorbance at 405 nm (Examples 9, 13-19, 23, 24, 27, 30, 31); conditions: for Inhibition %: Example 15
# Protocol: CuSO4.5H2O dilutions in 10 mM TRIS buffer pH 7 to 10 mM, 5 mM, 2.5 mM 1.25 mM Benzoyl-Tyrosine p-nitroanilide (BTPNA): 0.5 mg/mL BTPNA in Acetone
# Study: • (1) 100 μl buffer (10 mM TRIS, pH=7)+50 μl Chymotrypsin Stock+50 μl BTPNA • (2) 80 μl buffer (10 mM TRIS, pH=7)+20 μl CuSO4 stock (10 mM)+50 μl Chymotrypsin Stock+50 μl BTPNA • (3) 80 μl buffer (10 mM TRIS, pH=7)+20 μl CuSO4 dilut. (5 mM)+50 μl Chymotrypsin Stock+50 μl BTPNA • (4) 80 μl buffer (10 mM TRIS, pH=7)+20 μl CuSO4 stock (2.5 mM)+50 μl Chymotrypsin Stock+50 μl BTPNA • (5) 80 μl buffer (10 mM TRIS, pH=7)+20 μl CuSO4 dilut. (1.25 mM)+50 μl Chymotrypsin Stock+50 μl BTPNA
# Final copper concentrations: 1 mM, 0.5 mM, 0.25 mM, 0.125 mM.
# 10 mM CuSO4 and Copper gluconate stock solution were diluted 1:1 with 10 mM TRIS buffer pH 7
# Study: • (1) 100 μl buffer (10 mM TRIS, pH=7)+50 μl Chymotrypsin Stock+50 μl BTPNA • (2) 80 μl buffer (10 mM TRIS, pH=7)+20 μl CuSO4 dil. (5 mM)+50 μl Chymotrypsin Stock+50 μl BTPNA • (3) 80 μl buffer (10 mM TRIS, pH=7)+20 μl Copper gluconate dilut. (5 mM)+50 μl Chymotrypsin Stock+50 μl BTPNA • (4) 100 μl Cu-bisglycinate stock (0.5 mM)+50 μl Chymotrypsin Stock+50 μl BTPNA
# 10 mM CuSO4 stock solution was diluted 1:1 with 10 mM TRIS Puffer pH 7
# Study: • (1) 30 μl buffer (10 mM TRIS, pH=7)+20 μl CuSO4 dil. (5 mM)+100 μl Chymotrypsin Stock: 30 min. incubation, then addition of 50 μl BTPNA • (2) 30 μl buffer (10 mM TRIS, pH=7)+100 μl Chymotrypsin Stock: 30 min. incubation, then addition of 20 μl CuSO4 dil. (5 mM)+50 μl BTPNA
# Final copper concentration: 0.5 mM
# Iron(II)-bisglycinate solution containing 1.86 mM of iron in 10 mM TRIS buffer pH 7 was prepared
# Cu(II)-gluconate solution containing 2.0 mM of copper in 10 mM TRIS buffer pH 7 was prepared
# Study: • (1) 100 μl buffer (10 mM TRIS, pH=7)+50 μl Chymotrypsin Stock+50 μl BTPNA • (2) 100 μl iron(II)-bisglycinate+50 μl Chymotrypsin Stock+50 μl BTPNA • (3) 100 μl copper(II)-gluconate+50 μl Chymotrypsin Stock+50 μl BTPNA
# Values were corrected (subtraction of blank). Inhibition was calculated by setting the absorption value of (1) at each time-point as 100%.
# Iron(II)-bisglycinate solution containing 0.46 mM of iron in 10 mM TRIS buffer pH 7 was prepared
# Cu(II)- bisglycinate solution containing 0.46 mM of copper in 10 mM TRIS buffer pH 7 was prepared
# Study: • (1) 100 μl buffer (10 mM TRIS, pH=7)+50 μl Chymotrypsin Stock+50 μl BTPNA • (2) 100 μl iron(II)-bisglycinate+50 μl Chymotrypsin Stock+50 μl BTPNA • (3) 100 μl copper(II)-bisglycinate+50 μl Chymotrypsin Stock+50 μl BTPNA
# Values were corrected (subtraction of blank). Inhibition (%) was calculated by setting the absorption value of (1) at each time-point as 100% degradation.
# Values were corrected (subtraction of blank). pH was confirmed to be pH 7 after the experiment.
# 0.025 mg/ml Chymotrypsin, 0.05 mg/mL Benzoyl-Tyrosine p-nitroanilide (BTPNA). Lauryl glutamate: 0.25 mg/ml; copper (as copper gluconate): 0.035 mg/ml.
# 0.025 mg/ml Chymotrypsin, 0.05 mg/mL Benzoyl-Tyrosine p-nitroanilide (BTPNA). Lauryl glutamate: 0.25 mg/ml; iron (as iron gluconate): 0.03 mg/ml.
# 100 μl 50 mM TRIS pH 7+50 μL Chymotrypsin Stock+50 μL BTPNA Stock
# 50 μl Beta-cyclodextrin+50 μl 50 mM TRIS pH 7+50 μL Chymotrypsin Stock+50 μL BTPNA Stock
# 50 μl copper gluconate+50 μl 50 mM TRIS pH 7+50 μL Chymotrypsin Stock+50 μL BTPNA Stock
# 50 μl copper gluconate+50 μl Beta-cyclodextrin+50 μL Chymotrypsin Stock+50 μL BTPNA Stock
# 50 μl copper gluconate+50 μl trisodium phosphate+50 μL Chymotrypsin Stock+50 μL BTPNA Stock
# 50 μl iron gluconate+50 μl trisodium phosphate+50 μL Chymotrypsin Stock+50 μL BTPNA Stock
# Experiments were carried out at pH 7 in 50 mM TRIS buffer.
# [5] = Sprague Dawley, rat, in vivo, sc
molecule,measurement,setting,value
"CC[C@H](C)[C@H](NC(=O)[C@H](CCC(=O)O)NC(=O)[C@H](CO)NC(=O)[C@@H](NC(=O)[C@@H](N)CO)C(C)C)C(=O)N[C@@H](CCC(N)=O)C(=O)N[C@@H](CC(C)C)C(=O)N[C@@H](CCSC)C(=O)N[C@@H](Cc1cnc[nH]1)C(=O)N[C@@H](CC(N)=O)C(=O)N[C@@H](CC(C)C)C(=O)NCC(=O)N[C@@H](CCCCN)C(=O)N[C@@H](Cc1cnc[nH]1)C(=O)N[C@@H](CC(C)C)C(=O)N[C@@H](CC(N)=O)C(=O)N[C@@H](CO)C(=O)N[C@@H](CCSC)C(=O)N[C@@H](CCC(=O)O)C(=O)N[C@@H](CCCN=C(N)N)C(=O)N[C@H](C(=O)N[C@@H](CCC(=O)O)C(=O)N[C@@H](Cc1c[nH]c2ccccc12)C(=O)N[C@@H](CC(C)C)C(=O)N[C@@H](CCCN=C(N)N)C(=O)N[C@@H](CCCCN)C(=O)N[C@@H](CCCCN)C(=O)N[C@@H](CC(C)C)C(=O)N[C@@H](CCC(N)=O)C(=O)N[C@@H](CC(=O)O)C(=O)N[C@H](C(=O)N[C@@H](Cc1cnc[nH]1)C(=O)N[C@@H](CC(N)=O)C(=O)N[C@@H](Cc1ccccc1)C(=O)O)C(C)C)C(C)C [PTH (1-34) s.c., Teriparatide]",F,[1],100 ± 23%
Aprotinin,increase in mortality,[2],64%
"C[C@@H](O)[C@@H]1NC(=O)[C@H](CCCCN)NC(=O)[C@@H](Cc2c[nH]c3ccccc23)NC(=O)[C@H](Cc2ccccc2)NC(=O)[C@@H](NC(=O)[C@H](N)Cc2ccccc2)CSSC[C@@H](C(=O)N[C@H](CO)[C@@H](C)O)NC1=O [Reference (s.c.), Octreotide]",ΔAUC(0-120),"[3]; OCT formulations 0.4 ml/kg into proximal jejunum, octreotide 0.36 mg/kg, reference s.c., anaesthetized rats",14126 ± 2727 ng·min/mL
same,bioavailability,"[3]; Sprague Dawley, rat, in vivo",100 ± 19%
same,Cmax,[3]; [5],148 ± 36 ng/mL
same,Tmax,[3]; [5],1.5 h
O=S(=O)([O-])[O-].[Cu+2] [Copper sulfate],Dissolution in aqua purificata,[4],precipitation
same,trypsin inhibition,trypsin; pH 7,strongly inhibited
same,inhibition of chymotrypsin,"chymotrypsin; Example 9, final copper 1, 0.5, 0.25, 0.125 mM, 10 mM TRIS pH 7, FIG. 2",inhibits the proteolytic enzyme chymotrypsin in a dose dependent manner
same,influence of copper pre-incubation on chymotrypsin activity,"chymotrypsin; Example 14, CuSO4, final copper 0.5 mM, 30 min pre-incubation, FIG. 7",increases the chymotrypsin inhibitory activity
Copper gluconate,Dissolution in aqua purificata,[4],Clear yellowish solution
same,inhibition of trypsin,"trypsin; Example 10, copper gluconate solutions 100 to 0.078 mg/ml, 50 mM TRIS pH 7, after 15 minutes, FIG. 3",inhibits the proteolytic enzyme trypsin in a dose dependent manner
same,trypsin inhibition,"trypsin; Example 20, solutions 1 mg/mL iron gluconate, 1 mg/mL copper gluconate, 12 mg/mL copper lysinate, FIG. 11",can be inhibited
same,trypsin inhibition,"trypsin; Example 21, lauryl glutamate […], copper […], pH 7, 50 mM TRIS, FIG. 12",can be inhibited
same,trypsin inhibition,"trypsin; Example 28, stocks 1 mg/ml copper(II)gluconate, 1 mg/ml manganese(II)sulfate, pH 7, FIG. 19",can be inhibited
same,trypsin inhibition,"trypsin; Example 33, stocks 1 mg/ml copper(II)gluconate, 1 mg/ml iron(II)gluconate, 40 or 80 μl, pH 7, FIG. 23",can be inhibited
same,Inhibition %,"chymotrypsin; 0 minutes, metal ion Fe 0.06 mg/ml (0.92 mM), Cu 0.065 mg/ml (1.0 mM), 10 mM TRIS pH 7",0%
same,Inhibition %,"chymotrypsin; 15 minutes, metal ion Fe 0.92 mM, Cu 1.0 mM",82%
same,Inhibition %,"chymotrypsin; 30 minutes, metal ion Fe 0.92 mM, Cu 1.0 mM",84%
same,Inhibition %,"chymotrypsin; 45 minutes, metal ion Fe 0.92 mM, Cu 1.0 mM",82%
same,Inhibition %,"chymotrypsin; 60 minutes, metal ion Fe 0.92 mM, Cu 1.0 mM",79%
same,chymotrypsin inhibition,"chymotrypsin; Example 18, stocks: copper gluconate 10 mM, EDTA 5 mM, sodium caprylate 4 mg/ml, pH 7, FIG. 9",can inhibit chymotrypsin
same,chymotrypsin inhibition,"chymotrypsin; Example 23, lauryl glutamate […], copper […], pH 7, 50 mM TRIS, FIG. 14",can be inhibited
same,chymotrypsin inhibition,"chymotrypsin; Example 27, stocks […] copper(II)gluconate, 1 mg/ml beta-cyclodextrin, FIG. 18",can be inhibited
same,chymotrypsin inhibition,"chymotrypsin; Example 31, stocks […] copper(II)gluconate, 1.25 mM EDTA, pH 7, 10 mM TRIS, FIG. 22",can be inhibited
